{
  "source": "patent US20190008810A1",
  "about": "“METHOD FOR PREVENTION, TREATMENT AND ALLEVIATION OF INFECTIOUS DISEASES AND DISORDERS” (REPLICON HEALTH OY, priority 2016, published 2019)",
  "key": {"[1]": {"tested_on": "seasonal flu or similar infectious disease", "format": "in vivo, human"}, "[2]": {"tested_on": "eimeria acervulina, eimeria maxima and eimeria tenella", "assay": "Coccidial challenge in broiler chickens, Example 1g", "format": "in vivo", "details": "for overall lesion score, difference to 0-control: day 21"}, "[3]": {"tested_on": "rat primary optic nerve astrocytes", "assay": "ROS generation (CellROX Green) in rat primary optic nerve astrocytes, Example 2", "format": "cell-based", "details": "14 μM", "experimental": "For proving the efficacy of DGA Activation in reducing ROS in infectious disorders an in vitro study using rat primary optic nerve astrocytes has been conducted. […] As an important part of the study the cell viability was estimated 6 hours after tBHP administration by two methods, i.e. LDH and MTT assays. Cell viability was measured using the in-house MTT assay (of Experimentica Ltd., Finland) and CytoTox96 non-radioactive cytotoxicity assay (G1780, Promega) in response to oxidative stress primary optic nerve astrocytes. The production of reactive oxygen species (ROS) was measured using CellROX Green (Invitrogen) and isolate RNA in RNALater solution (Ambion). Primary optical nerve astrocytes where obtained from 4-week-old male Wister rats (6 animals' altogether) and where cultured to obtain sufficient amount of cells for the experiment. In the experiment cells where plated at 5000 cells per well and allowed to adhere for 24 hrs prior to the administration of compounds for 48 hrs (replenished every 24 hrs). After 24 hrs the compounds were removed, and readded with new medium for 1 hr, prior to the administration of 85 μM tBHP (FIG. 3c). MTT and LDH assay were performed after 6 hrs and ROS detection using CellROX green was performed over a time course of 4 hrs. D-glyceric acid was mixed into the medium in beforehand in soluble calcium salt format (DGAcs). After mixing the calcium is liberated to the medium from the D-glyceric acid. D-glycerate is formed."}, "[4]": {"tested_on": "rat primary optic nerve astrocytes", "assay": "Cell viability (MTT and LDH assays) of rat primary optic nerve astrocytes", "format": "cell-based", "experimental": "For proving the efficacy of DGA Activation in reducing ROS in infectious disorders an in vitro study using rat primary optic nerve astrocytes has been conducted. […] As an important part of the study the cell viability was estimated 6 hours after tBHP administration by two methods, i.e. LDH and MTT assays. Cell viability was measured using the in-house MTT assay (of Experimentica Ltd., Finland) and CytoTox96 non-radioactive cytotoxicity assay (G1780, Promega) in response to oxidative stress primary optic nerve astrocytes. The production of reactive oxygen species (ROS) was measured using CellROX Green (Invitrogen) and isolate RNA in RNALater solution (Ambion). Prior study preparations to find suitable tBHP concentration: The astrocytes where seeded at 5000 cells per well and allowed to grow for 48 hrs to mimic the study. On day 2 the medium was removed and the cells were exposed to a dose response range of tBHP in fresh medium for 6 hrs. The MTT and LDH assay were performed to assess cell survival using the Victor microplate reader. The raw data was given to patent applicant for assessment. […] After 24 hrs the compounds were removed, and readded with new medium for 1 hr, prior to the administration of 85 μM tBHP (FIG. 3c). […]"}, "fever": {"tested_on": "fever", "assay": "Acute fever response in two humans under infection, Example 4", "format": "in vivo, human", "experimental": "FIG. 11: Numerical values of short term reduction in fever in disease after the DGA Activation (administration approximately 300 mg of D-glyceric acid mixed in water as calcium salt (=2× 200 mg of DGAcs). The results in this table are presented graphically in FIG. 5 and explained in Example 4. Additional Notes: 300 mg of D-glyceric acid is more precisely the same as 430 mg of calcium salt dehydrate formulation, because one calcium atom and 2 water molecules make up some 30% of the total molecular weight. *) Reduction in fever materialized but the symptoms of the disease e.g. pain remained. **) Rather stressful “absent day from work arrangements” by e-mail between 0 minutes and 15 minutes' measurements could possibly have kept fever up.\nIn Example 4 acute 15 min, 30 min, etc. fever responses of the DGA Activation in two individual under viral and/or bacterial infection (subjects S1 and S4 from e.g. Examples 1b-1f) were measured. Results are presented in graphical format in FIG. 5 and in numeric format in FIG. 11. The measurements of body temperatures after the DGA Activation were made in physiological state where infections (diseases) continue but they have nevertheless more or less stabilized. In this kind of a situation the immune system is activated above healthy and/or subclinical level. The objective was to verify possible spillover effects from reduction in inflammation and in oxidative stress towards fever. At the same the target was to gain more info on the size of suitable administration. (Before initiating any human tests full proof of safety was received from 3 week in vivo experiments with rats. The doses used in these clinical tests are at maximum less than 5% of the safe doses with rats in the 3-week safety tests.)"}, "[5]": {"assay": "3-week safety feeding study with 80 rats", "format": "in vivo", "details": "three doses mixed into chow, 3 weeks; highest more than 100 times human doses", "experimental": "Before initiating any clinical tests full proof of safety was received from 3 week in vivo feeding experiments with rats. This 3-week safety study with 80 rats was conducted in Finnish National Institute of Health with three different D-glyceric acid doses mixed into chow. […] Highest doses with rats in the safety study were more than 100 times the doses used for humans in any of the shorter tests presented here."}, "[6]": {"tested_on": "ethanol-dosed gastric cells", "details": "in vitro study, Habe et al.; cited from earlier work"}},
  "data": [
    {"compound": "O=C(O)[C@H](O)CO", "note": "[DGA, D-glyceric acid]", "values": [
      {"measurement": "time to alleviation of all symptoms of two-week long infection", "setting": "[1]; S1", "result": 24, "unit": "h"},
      {"measurement": "time to visible alleviation", "setting": "[1]; S1", "result": "12 to 24", "unit": "h"},
      {"measurement": "body temperature (fever)", "setting": "[1]; S1, Monday 0130 pm after 2 doses of 3×200 mg Sunday night and 2×200 mg Monday morning, 37.0 on Sunday", "result": 36.62, "unit": "celcius"},
      {"measurement": "body temperature", "setting": "[1]; S1, Monday 0700 pm", "result": 36.61, "unit": "celcius"},
      {"measurement": "time until prolonged mild disease state disappeared", "setting": "[1]; human, in vivo", "result": 2, "unit": "days"},
      {"measurement": "mortality after 14 days", "setting": "[2]; DGA1 group", "result": "no mortality"},
      {"measurement": "oocyst count at 7 and 11 days post infection", "setting": "[2]; DGA1 group", "result": "decreased in DGA1 group already in 7 days to similar levels than in P-control"},
      {"measurement": "oocyst count at 5 days (acute phase)", "setting": "[2]; DGA1 group", "result": "less than in 0-control"},
      {"measurement": "feed conversion rate (FCR) vs 0-control", "setting": "[2]; DGA1 group, appr. 9 mg/kg/day DGAcs in feed, 14-35, 21-35, 28-35 days, p-values 0.04 to 0.05", "result": "statistically significantly better"},
      {"measurement": "overall lesion score, difference to 0-control", "setting": "[2]; DGA1 group", "result": "statistically significant only in P-control"},
      {"measurement": "body weight gain (14-35 days) vs 0-control", "setting": "[2]; DGA1 group, p-value 0.002", "result": "statistically very significantly higher"},
      {"measurement": "difference in oocyst counts after the infection vs 0-control", "setting": "[2]; DGA1 group, pairwise t-test p 0.04", "result": "statistically significant"},
      {"measurement": "number of oocyst in 7 and 11 day measurements", "setting": "[2]; DGA½ group", "result": "declined to almost similar levels than in P-control"},
      {"measurement": "feed conversion rate (FCR) vs 0-control", "setting": "[2]; DGA½ group, appr. 4.5 mg/kg/day", "result": "better compared to 0-control"},
      {"measurement": "overall lesion score, difference to 0-control", "setting": "[2]; DGA½ group", "result": "statistically significant only in P-control"},
      {"measurement": "mortality after 14 days", "setting": "[2]; DGA½ group, one bird clearly ill at slaughtering", "result": "no mortality"},
      {"measurement": "difference in oocyst counts after the infection vs 0-control", "setting": "[2]; DGA½ group, pairwise t-test p 0.03", "result": "statistically significant"},
      {"measurement": "ROS generation vs 0-controls", "setting": "[3]; 0 tBHP (healthy conditions)", "result": "lower"},
      {"measurement": "increase of average ROS generation in 15 minutes, tBHP group compared to without tBHP", "setting": "[3]; 85 μM tBHP, 0 min to 15 min, control approximately 20%", "result": "approximately 30%"},
      {"measurement": "ROS level vs control groups", "setting": "[3]; 15, 30 and 60 minutes after bolus 85 μM tBHP", "result": "statistically significantly lower"},
      {"measurement": "cell viability after tBHP administration", "setting": "[4]; 85 μM tBHP, 6 hrs", "result": "clearly higher"},
      {"measurement": "cell viability compared to 0-controls", "setting": "[4]; in health (0 μM tBHP) and in disease state (85 μM tBHP)", "result": "increases in both"},
      {"measurement": "reducing fever due to infection", "setting": "fever; 2×200 mg oral dose mixed into water", "result": "very effective in reducing fever"},
      {"measurement": "immediate impact on fever", "setting": "fever; S1, 1×200 mg, Monday 0908 pm", "result": "didn't seem to have any significant immediate impact on fever"},
      {"measurement": "return of fever", "setting": "fever; S1 and S4", "result": "returns almost to the starting level in 1 hour or at least in 1.5 hours"},
      {"measurement": "time to reduction of fever", "setting": "fever; S1 and S4, 2×200 mg of DGAcs in water", "result": "15 to 30", "unit": "min"},
      {"measurement": "decline of fever", "setting": "fever; statistically very significant", "result": "modest"},
      {"measurement": "adverse health effects (feed intake, body weight development)", "setting": "[5]", "result": "No adverse health effects were noticed"},
      {"measurement": "viability of ethanol-dosed gastric cells", "setting": "[6]", "result": "can increase viability of ethanol-dosed gastric cells"}
    ]}
  ]
}
